Measured values as given in patent publication US6410706B1, “Nucleic acid encoding chitin-binding receptor kinase” (Korea Research Institute of Bioscience and Biotechnology, priority 1999, dated 2002).
pKd: −log10 of the molar value.

Molecular target: recombinant chitinase domain of receptor kinase CHRK1 (amino acid residues 1 to 359 of SEQ ID NO: 1) (Nicotiana tabacum, UniProt Q9SWX8)
Experiment: Fluorescence polarization chitin-binding assay with Scatchard plot analysis
Details: excitation 318 nm, emission 373 nm; for binding to the chitinase domain, seen as change in polarization value: fluorescence polarization, thioredoxin control did not increase
Protocol: The chitinase activity and the chitin-binding activity of receptor kinase CHRK1 in this invention are analysed using its recombinant chitinase domain. Consequently, the recombinant chitinase domain has a chitin-binding activity and lacks a chitinase activity.
In order to examine the chitinase activity of receptor kinase […], the recombinant chitinase domain corresponding to amino acid residues 1 to 359 of SEQ. ID NO: 1 was purified from E. coli, and its chitinase activity was estimated by fluorescence polarization assay.
As a result of Scratchard plot analysis, dissociation constant (kd) value of MU-chitotriose was estimated to be 800 nM. In case of using MU-chitotriose or MU-chitotetrose probe without fluorophor as a competitor, binding activity between the chitinase domain and MU-chitotriose or MU-chitotetrose conjugated with fluorophor was inhibited by the competitor. Consequently, the initial polarization value was decreased.

Sequence of recombinant chitinase domain of receptor kinase CHRK1 (amino acid residues 1 to 359 of SEQ ID NO: 1) (Q9SWX8 entry or part of it): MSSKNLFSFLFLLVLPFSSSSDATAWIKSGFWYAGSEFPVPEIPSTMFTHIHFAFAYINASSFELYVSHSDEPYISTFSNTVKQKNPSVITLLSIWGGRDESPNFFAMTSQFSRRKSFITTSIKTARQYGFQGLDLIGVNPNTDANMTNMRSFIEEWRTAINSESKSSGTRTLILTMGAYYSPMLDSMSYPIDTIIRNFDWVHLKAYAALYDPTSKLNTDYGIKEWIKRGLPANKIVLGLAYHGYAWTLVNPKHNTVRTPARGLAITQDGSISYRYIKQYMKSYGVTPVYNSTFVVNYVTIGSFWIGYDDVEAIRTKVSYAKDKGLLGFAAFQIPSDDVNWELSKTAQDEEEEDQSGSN

Compound | pKd (Scratchard plot analysis of fluorescence polarization, chitinase domain purified from E. coli, read-out: dissociation constant (kd)) | binding to the chitinase domain, seen as change in polarization value
CC(=O)N[C@H]1[C@H](Oc2ccc3c(C)cc(=O)oc3c2)O[C@H](CO)[C@@H](O[C@@H]2O[C@H](CO)[C@@H](O[C@@H]3O[C@H](CO)[C@@H](O)[C@H](O)[C@H]3NC(C)=O)[C@H](O)[C@H]2NC(C)=O)[C@@H]1O [MU-chitotriose] | 6.10 | increased polarization value
CC(=O)NC1C(OC2C(CO)OC(OC3C(CO)OC(OC4C(CO)OC(Oc5ccc6c(C)cc(=O)oc6c5)C(NC(C)=O)C4O)C(NC(C)=O)C3O)C(NC(C)=O)C2O)OC(CO)C(O)C1O (stereo not drawn) [Mu-chitotetrose] | – | increased polarization value
